The test system of the experiment is CD2F1 mice, L1210 leukemia ip, survival T/C. The experiment in a line: NCI In Vivo Anticancer Drug Screen. Data for tumor model L1210 Leukemia (intraperitoneal) in CD2F1 (CDF1) mice. Particulars: higher = longer survival. In short, it runs like this: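 Vehicle-treated tumor-bearing mice served as controls (C) for compound-treated mice (T). Reported figure is T divided by C.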

The mark [1] stands for this setting: endpoint: mean survival time, dose: 50.0 mg/kg/injection, schedule: Q04DX003 (ip), vehicle: saline with Tween-80.
Where [2] appears, read: endpoint: mean survival time, dose: 100.0 mg/kg/injection, schedule: Q01DX009 (ip), vehicle: saline with Tween-80.
Setting [3] is: endpoint: mean survival time, dose: 100.0 mg/kg/injection, schedule: Q04DX003 (ip), vehicle: saline with Tween-80.
Where [4] appears, read: endpoint: mean survival time, dose: 200.0 mg/kg/injection, schedule: Q04DX003 (ip), vehicle: saline with Tween-80.
Setting [5] is: endpoint: mean survival time, dose: 12.5 mg/kg/injection, schedule: Q04DX003 (ip), vehicle: saline with Tween-80.
Setting [6] is: endpoint: mean survival time, dose: 25.0 mg/kg/injection, schedule: Q04DX003 (ip), vehicle: saline with Tween-80.

SMILES strings stand for the structures. “And” between values parts separate entries of the source, which are not always exact repeats. Equal entries are not always repeated. Toxic doses and inconclusive results are not listed.

Take `CC1(C)Nc2cc3c(cc2-n2cccc21)oc1ccccc13`: the T/C by setting is: (endpoint: median survival time, dose: 50.0 mg/kg/injection, schedule: Q01DX005 (ip), vehicle: DMSO) 98 % of control; (endpoint: median survival time, dose: 100.0 mg/kg/injection, schedule: Q01DX005 (ip), vehicle: DMSO) 103 % of control; (endpoint: median survival time, dose: 200.0 mg/kg/injection, schedule: Q01DX005 (ip), vehicle: DMSO) 100 % of control; (endpoint: median survival time, dose: 400.0 mg/kg/injection, schedule: Q01DX005 (ip), vehicle: DMSO) 101 % of control; (endpoint: median survival time, dose: 800.0 mg/kg/injection, schedule: Q01DX005 (ip), vehicle: DMSO) 103 % of control.
On to `C[N+]1(C)CCC2=CC3C=CC2C1C=C3` (configuration not stated), for which the T/C reads like this: (endpoint: median survival time, dose: 25.0 mg/kg/injection, schedule: Q04DX002 (ip), vehicle: saline with Tween-80) 100 % of control; (endpoint: median survival time, dose: 50.0 mg/kg/injection, schedule: Q04DX002 (ip), vehicle: saline with Tween-80) 100 % of control.
For the molecule `c1ccc(CCNCc2ccccc2)cc1`, the T/C (endpoint: mean survival time, dose: 25.0 mg/kg/injection, schedule: Q01DX009 (ip), vehicle: saline with Tween-80) was 94 % of control; the T/C (endpoint: mean survival time, dose: 50.0 mg/kg/injection, schedule: Q01DX009 (ip), vehicle: saline with Tween-80) is 98 % of control; the T/C under setting [1] was 104 % of control; the T/C under setting [2] was 88 % of control; the T/C under setting [3] is 97 % of control.
`CC/C(=C/c1ccc2c(c1)OCO2)[N+](=O)[O-]`: the T/C (endpoint: mean survival time, dose: 100.0 mg/kg/injection, schedule: Q01DX001 (ip), vehicle: saline with Tween-80) was 105 % of control.
Turning to `C#CC[N+](C)(C)CCNC(=O)CCCCCCCCCCCCCCC`, the T/C (endpoint: mean survival time, dose: 75.0 mg/kg/injection, schedule: Q01DX001 (ip), vehicle: saline) is 102 % of control.
With `CC(C)(C)CC(C)(C)c1ccc(OCCOc2ccc(CC(=S)N3CCOCC3)cc2)cc1`, the T/C (endpoint: mean survival time, dose: 100.0 mg/kg/injection, schedule: Q01DX009 (ip), vehicle: Klucel (hydroxypropylcellulose) (HPC)) was 96 % of control; the T/C under setting [3] is 93 % of control; the T/C (endpoint: mean survival time, dose: 200.0 mg/kg/injection, schedule: Q01DX009 (ip), vehicle: Klucel (hydroxypropylcellulose) (HPC)) is 95 % of control; the T/C under setting [4] is 95 % of control; the T/C (endpoint: mean survival time, dose: 400.0 mg/kg/injection, schedule: Q01DX009 (ip), vehicle: Klucel (hydroxypropylcellulose) (HPC)) is 98 % of control; the T/C (endpoint: mean survival time, dose: 400.0 mg/kg/injection, schedule: Q04DX003 (ip), vehicle: saline with Tween-80) was 87 % of control.
In the case of `CC1=C(c2ccccc2)C(c2ccccc2)C(C)C1=O` (configuration not stated), the T/C was 100 % of control under setting [2]; 98 % of control (endpoint: mean survival time, dose: 200.0 mg/kg/injection, schedule: Q01DX009 (ip), vehicle: saline with Tween-80); 87 % of control (endpoint: mean survival time, dose: 400.0 mg/kg/injection, schedule: Q01DX009 (ip), vehicle: saline with Tween-80).
`CN(CC[NH-])CC[NH-].[I][Pt]`: the T/C reads like this: under setting [5], 100 % of control; under setting [6], 94 % of control; under setting [1], 98 % of control; under setting [3], 100 % of control; under setting [4], 94 % of control.
For `CCCCCc1cc(/C=C2/N=C(c3ccc[nH]3)C=C2OC)[nH]c1C`, the T/C is 92 % of control (endpoint: mean survival time, dose: 0.25 mg/kg/injection, schedule: Q01DX009 (ip), vehicle: saline with Tween-80); 97 % of control (endpoint: mean survival time, dose: 0.5 mg/kg/injection, schedule: Q01DX009 (ip), vehicle: saline with Tween-80); 101 % of control (endpoint: mean survival time, dose: 1.0 mg/kg/injection, schedule: Q01DX009 (ip), vehicle: saline with Tween-80); 103 % of control (endpoint: mean survival time, dose: 2.0 mg/kg/injection, schedule: Q01DX009 (ip), vehicle: saline with Tween-80); 92 % of control (endpoint: mean survival time, dose: 4.0 mg/kg/injection, schedule: Q01DX009 (ip), vehicle: saline with Tween-80).
`CN1CC2C(O)CCC1CC2O` (configuration not stated): the T/C is, setting by setting: (endpoint: mean survival time, dose: 100.0 mg/kg/injection, schedule: Q04DX002 (ip), vehicle: saline) 105 % of control; (endpoint: mean survival time, dose: 200.0 mg/kg/injection, schedule: Q04DX002 (ip), vehicle: saline) 90 % of control.
On to `CCCNC1=C(C)C(=O)C2=C(C1=O)[C@@H](COC(N)=O)[C@]1(O)[C@H]3[C@@H](CN21)N3C` (some centres not stated), for which the T/C reads like this: (endpoint: mean survival time, dose: 1.5 mg/kg/injection, schedule: Q01DX001 (ip), vehicle: water) 98 % of control and 103 % of control; (endpoint: mean survival time, dose: 3.0 mg/kg/injection, schedule: Q01DX001 (ip), vehicle: water) 97 % of control and 103 % of control; (endpoint: mean survival time, dose: 6.0 mg/kg/injection, schedule: Q01DX001 (ip), vehicle: water) 98 % of control and 101 % of control; (endpoint: mean survival time, dose: 12.0 mg/kg/injection, schedule: Q01DX001 (ip), vehicle: water) 98 % of control and 103 % of control; (endpoint: mean survival time, dose: 24.0 mg/kg/injection, schedule: Q01DX001 (ip), vehicle: water) 97 % of control and 101 % of control; (endpoint: mean survival time, dose: 50.0 mg/kg/injection, schedule: Q01DX001 (ip), vehicle: distilled water + Tween-80) 100 % of control. Under “endpoint: mean survival time, dose: 100.0 mg/kg/injection, schedule: Q01DX001 (ip), vehicle: distilled water + Tween-80”, the T/C is 108 % of control.
As to `O=C(O)C(O)C(=O)O.[NH-]C1CCCCC1[NH-].[Pt+2]`, the T/C reads like this: (endpoint: mean survival time, dose: 1.18 mg/kg/injection, schedule: Q04DX003 (ip), vehicle: saline with Tween-80) 109 % of control; (endpoint: mean survival time, dose: 2.35 mg/kg/injection, schedule: Q04DX003 (ip), vehicle: saline with Tween-80) 120 % of control; (endpoint: mean survival time, dose: 4.7 mg/kg/injection, schedule: Q04DX003 (ip), vehicle: saline with Tween-80) 124 % of control.
`C=C(OC)C(Nc1cc(OC)c(OC)cc1C(=O)OC1CC(O[C@@H]2C(=O)C(NC(=O)OC)=C3/C(=C\CSSSC)[C@]2(O)C#C/C=C\C#C[C@@H]3OC2OC(C)C(NOC3CC(O)C(SC)C(C)O3)C(O)C2OC2CC(OC)C(NCCC)CO2)OC(C)C1O)OC` (some centres not stated): the T/C was 117 % of control (endpoint: median survival time, dose: 0.1 micrograms/kg/injection, schedule: Q01DX005 (ip), vehicle: methylcellulose (MC)); 117 % of control (endpoint: median survival time, dose: 0.2 micrograms/kg/injection, schedule: Q01DX005 (ip), vehicle: methylcellulose (MC)); 109 % of control (endpoint: median survival time, dose: 0.2 micrograms/kg/injection, schedule: Q04DX003 (ip), vehicle: methylcellulose (MC)); 180 % of control (endpoint: median survival time, dose: 0.3 micrograms/kg/injection, schedule: Q01DX005 (ip), vehicle: saline + alcohol); 119 % of control (endpoint: median survival time, dose: 0.32 micrograms/kg/injection, schedule: Q01DX005 (ip), vehicle: saline + alcohol); 118 % of control (endpoint: median survival time, dose: 0.4 micrograms/kg/injection, schedule: Q01DX005 (ip), vehicle: methylcellulose (MC)). Also, the T/C (endpoint: median survival time, dose: 0.4 micrograms/kg/injection, schedule: Q04DX003 (ip), vehicle: methylcellulose (MC)) is 118 % of control; the T/C (endpoint: median survival time, dose: 0.5 micrograms/kg/injection, schedule: Q01DX005 (ip), vehicle: saline + alcohol) was 180 % of control; the T/C (endpoint: median survival time, dose: 0.64 micrograms/kg/injection, schedule: Q01DX005 (ip), vehicle: saline + alcohol) was 151 % of control; the T/C (endpoint: median survival time, dose: 0.8 micrograms/kg/injection, schedule: Q01DX001 (ip), vehicle: methylcellulose (MC)) is 113 % of control; the T/C (endpoint: median survival time, dose: 0.8 micrograms/kg/injection, schedule: Q01DX005 (ip), vehicle: saline + alcohol) was 170 % of control; the T/C (endpoint: median survival time, dose: 0.8 micrograms/kg/injection, schedule: Q04DX003 (ip), vehicle: methylcellulose (MC)) is 122 % of control. The T/C is 170 % of control (endpoint: median survival time, dose: 1.28 micrograms/kg/injection, schedule: Q01DX005 (ip), vehicle: saline + alcohol); 180 % of control (endpoint: median survival time, dose: 1.3 micrograms/kg/injection, schedule: Q01DX005 (ip), vehicle: saline + alcohol); 180 % of control (endpoint: median survival time, dose: 2.1 micrograms/kg/injection, schedule: Q01DX005 (ip), vehicle: saline + alcohol); 162 % of control (endpoint: median survival time, dose: 3.2 micrograms/kg/injection, schedule: Q01DX005 (ip), vehicle: methylcellulose (MC)); 150 % of control (endpoint: median survival time, dose: 6.4 micrograms/kg/injection, schedule: Q01DX001 (ip), vehicle: methylcellulose (MC)); 94 % of control (endpoint: median survival time, dose: 6.4 micrograms/kg/injection, schedule: Q01DX005 (ip), vehicle: methylcellulose (MC)). The T/C is, setting by setting: (endpoint: median survival time, dose: 6.4 micrograms/kg/injection, schedule: Q04DX003 (ip), vehicle: methylcellulose (MC)) 152 % of control; (endpoint: median survival time, dose: 12.8 micrograms/kg/injection, schedule: Q01DX001 (ip), vehicle: methylcellulose (MC)) 150 % of control; (endpoint: median survival time, dose: 25.6 micrograms/kg/injection, schedule: Q01DX001 (ip), vehicle: methylcellulose (MC)) 104 % of control.
Regarding `COc1ccccc1/C=C\C(=O)C1COCN1` (configuration not stated), the T/C was 98 % of control (endpoint: mean survival time, dose: 37.5 mg/kg/injection, schedule: Q01DX009 (ip), vehicle: saline); 98 % of control (endpoint: mean survival time, dose: 75.0 mg/kg/injection, schedule: Q01DX009 (ip), vehicle: saline); 98 % of control (endpoint: mean survival time, dose: 150.0 mg/kg/injection, schedule: Q01DX009 (ip), vehicle: saline).
Consider `CC(NCCN(C)C)C1CCC2C3CCC4CC(O)CCC4(C)C3CCC12C` (configuration not stated), for which the T/C is 101 % of control under setting [5], 95 % of control under setting [6] and 101 % of control under setting [1].

The values are drawn from PubChem BioAssay AID256 (DTP/NCI, 2004).
